The source of these data is paper PMC9959553, “Promising Antifungal Molecules against Mucormycosis Agents Identified from Pandemic Response Box®: In Vitro and In Silico Analyses” (Journal of Fungi, 2023).

Each structure is given as a SMILES string.

The test system of this assay is R. oryzae UCP1295. In words: Screening of the Pandemic Response Box library at 5 µM. The assay is classed as cell-based, Rhizopus oryzae. As to conditions: 48 h, Table S1, mean of the four values. The gist of the method:
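Compounds at 5 μM in RPMI 1640 with 2% glucose and MOPS (0.165 mol/L, pH 7.2), with conidia at 2 × 10^5/mL, incubated 48 h at 37 °C in 5% CO2. Growth read by OD at 600 nm; hits defined as ≥60% inhibition. Posaconazole (5 μM) and 1% DMSO as controls.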
Take `CC[N+]1(C/C2=C/CCCCCC2)CCC(NC(=O)C2c3cc(Cl)ccc3Oc3ccc(Cl)cc32)CC1.[I-]` (stereo not drawn) [MMV1580489]: the “% of growth inhibition, Mean” value was -4.5%.

Take `c1cnc(NCc2ccc(CNc3ncccn3)cc2)nc1` [MMV1580490]: the “% of growth inhibition, Mean” value is given as -10.6%.

As to `CCOC(=O)/C=C/[C@H](C[C@@H]1CCNC1=O)NC(=O)[C@@H](CC(=O)[C@@H](NC(=O)c1cc(C)on1)C(C)C)Cc1ccc(F)cc1` [MMV1580491], the “% of growth inhibition, Mean” value was -18.6%.

As for `CC(C)Oc1ccc(-c2nc(-c3cccc4c3CC[C@@H]4NCCO)no2)cc1C#N` [MMV1580492], the “% of growth inhibition, Mean” value is listed as -7.3%.

Take `O=C(/C=C\n1cnc(-c2cc(C(F)(F)F)cc(C(F)(F)F)c2)n1)NNc1ccccn1` [MMV1580493]: the “% of growth inhibition, Mean” value came out at 42.7%.

With `CCC[C@H](NC(=O)[C@@H]1[C@H]2CCC[C@H]2CN1C(=O)[C@@H](NC(=O)[C@@H](NC(=O)c1cnccn1)C1CCCCC1)C(C)(C)C)C(=O)C(=O)NC1CC1` [MMV1580494], the “% of growth inhibition, Mean” value is listed as -15.1%.

On to `Nc1cnn(C2OC(CO)C(O)C2O)c(=O)n1` (stereo not drawn) [MMV1580495], for which the “% of growth inhibition, Mean” value is reported as -5.9%.

Regarding `NC(=S)N/N=C/c1ncccc1N` [MMV1580496], the “% of growth inhibition, Mean” value is given as -9.1%.

Consider `CC(C)(C)NC(=O)N[C@H](C(=O)N1C[C@H]2[C@@H]([C@H]1C(=O)NC(CC1CCC1)C(=O)C(N)=O)C2(C)C)C(C)(C)C` (stereo partly drawn) [MMV1580497], for which the “% of growth inhibition, Mean” value is given as -8.5%.

Consider `O=C(O)C[C@H]1CC[C@H](c2ccc(-c3ccc(Nc4ccc(C(F)(F)F)nc4)cn3)cc2)CC1` [MMV1580498], for which the “% of growth inhibition, Mean” value was -26.7%.

Turning to `COc1ccc(NS(=O)(=O)c2ccc(Cl)s2)cn1` [MMV1580499], the “% of growth inhibition, Mean” value is given as -3.0%.

`Cn1c2ccccc2c(=O)c2c(O)cccc21` [MMV1580500]: the “% of growth inhibition, Mean” value is -3.0%.

For `CC1(C)CC(NC(=O)C(=O)Nc2ccc(Cl)cc2)CC(C)(C)N1` [MMV1580501], the “% of growth inhibition, Mean” value is given as -11.4%.

Take `c1cc(CN2CCCNCCNCCCNCC2)ccc1CN1CCCNCCNCCCNCC1` [MMV1580502]: the “% of growth inhibition, Mean” value is 52.2%.

For `CC(=O)N1c2ccccc2NC2=C(C(=O)CC(C)(C)C2)C1c1ccc(OCc2ccccc2)cc1` (stereo not drawn) [MMV1580503], the “% of growth inhibition, Mean” value is on record as -1.0%.

On to `Oc1ccc(NCc2ccccc2OCc2ccccc2)cc1` [MMV1580504], for which the “% of growth inhibition, Mean” value is recorded as -5.9%.

In the case of `O=C(Nc1ccc(N2CCN(C(=O)c3ccccc3)CC2)cc1)c1ccc2c(c1)OCO2` [MMV1580505], the “% of growth inhibition, Mean” value is listed as -9.9%.

In the case of `C[C@H](NC(=O)C(=O)Nc1ccccc1C(C)(C)C)C(=O)N[C@@H](CC(=O)O)C(=O)COc1c(F)c(F)cc(F)c1F` [MMV1580794], the “% of growth inhibition, Mean” value was 1.8%.

Take `CC[C@@]1(O)C(=O)OCc2c1cc1n(c2=O)Cc2cc3c([N+](=O)[O-])cccc3nc2-1` [MMV1580796]: the “% of growth inhibition, Mean” value is recorded as -1.7%.

Regarding `OCCC#Cc1nc(-c2ccc(F)cc2)c(-c2ccncc2)n1CCCc1ccccc1` [MMV1580797], the “% of growth inhibition, Mean” value was -16.9%.

As for `Cc1[nH]c2ccccc2c1CC(=O)N[C@@H](Cc1ccccc1)C(=O)N(C)c1ccccc1` [MMV1580798], the “% of growth inhibition, Mean” value is -2.6%.

With `COc1ccc(COc2cc3oc(=O)c4cc(C(C)O)ccc4c3cc2OC)cc1` (stereo not drawn) [MMV1580799], the “% of growth inhibition, Mean” value is -1.6%.

For `N#Cc1cc([N+](=O)[O-])ccc1Oc1ccccc1Cl` [MMV1580800], the “% of growth inhibition, Mean” value is given as -8.1%.

For the compound `Cc1nc2ccc(Cl)cc2c(-c2ccccc2)c1CC(=O)O` [MMV1580801], the “% of growth inhibition, Mean” value was -8.7%.

Take `Nc1nc(NC2Cc3ccc(F)cc3C2)nc(N2CCCCC2)n1` (stereo not drawn) [MMV1580839]: the “% of growth inhibition, Mean” value is -3.1%.

With `O=C(Nc1ccc(Cl)c(C(F)(F)F)c1)C(CCCl)C(=O)Nc1ccc(Cl)c(C(F)(F)F)c1` [MMV1580840], the “% of growth inhibition, Mean” value is listed as -7.5%.

Turning to `O=S(=O)(NCB(O)O)c1cc2c(Cl)ccc(Cl)c2s1` [MMV1580841], the “% of growth inhibition, Mean” value is recorded as -42.4%.

For `Clc1cc2nc(C3CCNCC3)n(Cc3ccc(CNCCc4c[nH]cn4)cc3)c2cc1Cl` [MMV1580842], the “% of growth inhibition, Mean” value is on record as 0.4%.

In the case of `C[Si]1(C)CCN(Cc2cc(-c3ccc(Cl)cc3)n(-c3ccc(Cl)cc3)n2)CC1` [MMV1580843], the “% of growth inhibition, Mean” value is given as -17.9%.

On to `CC(=O)N[C@H](C)C(=O)N[C@H](Cc1ccccc1)C(=O)O` [MMV1580845], for which the “% of growth inhibition, Mean” value is reported as -37.6%.

Take `COc1ccc(SC(=O)N[C@H](CCC(=O)O)C(=O)O)cc1` [MMV1580846]: the “% of growth inhibition, Mean” value was -33.5%.

Regarding `CCCCCc1ccc(C(=O)NCCn2cc(CCCCCc3c[nH]c(N)n3)nn2)cc1.Cl` [MMV1580847], the “% of growth inhibition, Mean” value was -16.8%.

As for `NC(=O)c1cnc2ccc(S(=O)(=O)c3ccccc3)cc2c1Nc1ccc(O)cc1` [MMV1580848], the “% of growth inhibition, Mean” value was -15.6%.

On to `C=CCc1cc(Cc2cnc(N)nc2N)cc(OC)c1O` [MMV1580849], for which the “% of growth inhibition, Mean” value was -19.9%.

For the compound `Fc1ccc(-n2cc(Cn3c(-c4cccc(F)c4)nc4ccccc43)nn2)cc1` [MMV1580850], the “% of growth inhibition, Mean” value is -26.0%.

On to `CCCCCOc1ccc(/C=C2\Oc3c(ccc(O)c3O)C2=O)c(O)c1` [MMV1580851], for which the “% of growth inhibition, Mean” value is recorded as -13.7%.

For the compound `CCCCc1ccc(-c2cc(C(=O)O)cc(-c3ccc(Cl)cc3)n2)cc1` [MMV1580852], the “% of growth inhibition, Mean” value was -12.9%.

Turning to `O=C(Nc1cccc(C2=NCCN2)c1)c1ccc(-c2ccc(C(=O)Nc3cccc(C4=NCCN4)c3)cc2)cc1` [MMV1580853], the “% of growth inhibition, Mean” value is on record as -34.0%.

As for `CCc1cc(O)c(Oc2cccnc2N)cc1F` [MMV1580854], the “% of growth inhibition, Mean” value is reported as -36.7%.

Turning to `O=C(O)c1sccc1S(=O)(=O)n1ccc2cc(Br)ccc21` [MMV1580855], the “% of growth inhibition, Mean” value is listed as -1.0%.

For the compound `Cc1ccccc1NC(=O)Nc1cccc([N+](=O)[O-])c1` [MMV1581029], the “% of growth inhibition, Mean” value was 1.6%.

Regarding `CN(C(=O)C1(c2ccc(Cl)cc2)CCC1)c1ccccc1` [MMV1581030], the “% of growth inhibition, Mean” value is -7.5%.

In the case of `FC(F)(F)Oc1ccc(Nc2ccc3cccc(Cl)c3n2)cc1` [MMV1581032], the “% of growth inhibition, Mean” value is listed as -3.7%.

Take `N[C@H](CCC(=O)N[C@@H](Cc1c[nH]c2ccccc12)C(=O)O)C(=O)O` [MMV1581033]: the “% of growth inhibition, Mean” value is 2.8%.

Regarding `Cc1c(F)cccc1NC(=O)Nc1ccc(Cl)c(S(=O)(=O)[C@H]2CCCNC2)c1O` [MMV1581034], the “% of growth inhibition, Mean” value is given as -0.9%.

Regarding `NC(=O)c1ccc(I)c([N+](=O)[O-])c1` [MMV1581035], the “% of growth inhibition, Mean” value was -5.0%.

Take `COc1ccc(C[C@@H](C)[C@@H](C)Cc2ccc(OC)c(OC)c2)cc1OC` [MMV1581036]: the “% of growth inhibition, Mean” value is reported as -8.8%.

For the compound `O=C1[C@H](CC[C@H](O)c2ccc(F)cc2)[C@@H](c2ccc(O)cc2)N1c1ccc(F)cc1` [MMV1581377], the “% of growth inhibition, Mean” value was found to be 3.5%.

`Nc1ccc2oc(=O)ccc2c1I` [MMV1581378]: the “% of growth inhibition, Mean” value is -3.7%.

As to `Cc1cc(O)c2c(c1)C(=O)c1c(I)c(O)c(I)c(O)c1C2=O` [MMV1581545], the “% of growth inhibition, Mean” value is listed as -41.8%.

For the compound `O=c1cc(Nc2ccc3ccccc3c2)[nH]c(=O)[nH]1` [MMV1581546], the “% of growth inhibition, Mean” value is -6.0%.

For the compound `CC(C)(C)OC(=O)NCc1ccc(C(=O)N[C@H]2CCOC2=O)cc1` [MMV1581547], the “% of growth inhibition, Mean” value is reported as -3.1%.

`CC(C)(C)c1cccc(-c2nc3cc(C(=N)N)ccc3[nH]2)c1O` [MMV1581548]: the “% of growth inhibition, Mean” value is listed as -15.8%.

On to `CCc1nc(N)nc(N)c1C#CCc1ccccc1` [MMV1581549], for which the “% of growth inhibition, Mean” value amounted to 18.7%.

With `OC1O[C@H](CSc2ccc(F)cc2)[C@@H](O)[C@H]1O` (stereo partly drawn) [MMV1581550], the “% of growth inhibition, Mean” value was -29.6%.

For `c1ccc(-c2nnc3c4ccccc4c(N4CCNCC4)nn23)cc1` [MMV1581551], the “% of growth inhibition, Mean” value is listed as -11.4%.

As to `O=C(Nc1ccccc1)N(Cc1cc(Br)ccc1O)c1ccc(F)cc1` [MMV1581552], the “% of growth inhibition, Mean” value is -12.1%.

For the compound `COc1ccc2c(c1)cc(CNC(=O)c1cc3ccccc3o1)n2CC(=O)O` [MMV1581553], the “% of growth inhibition, Mean” value was -20.7%.

Take `Nc1cc(N)c2nc(-c3ccccc3)c(Nc3ccc(F)cc3)nc2c1` [MMV1581554]: the “% of growth inhibition, Mean” value is listed as -29.5%.

Turning to `Nc1cccc(-c2nc(N)nc(NC3Cc4ccccc4C3)n2)c1` [MMV1581555], the “% of growth inhibition, Mean” value is given as -6.9%.

On to `NC(=O)c1[nH]c2ccc(S(N)(=O)=O)cc2c1-c1ccccc1` [MMV1581556], for which the “% of growth inhibition, Mean” value is on record as -42.8%.

In the case of `O=C(N[C@H](CCS)C(=O)N[C@H](Cc1ccccc1)C(=O)O)c1cc2ccccc2[nH]1` [MMV1581557], the “% of growth inhibition, Mean” value stood at 0.3%.

Regarding `Cc1cccc(C)c1C(=O)Nc1nc(-c2ccccn2)cc2ccccc12` [MMV1581558], the “% of growth inhibition, Mean” value amounted to 53.3%.

On to `CC(C)Cn1c(=O)n(C)c(=O)c2c(-c3cncn3C)n(Cc3cccc4ccccc34)nc21` [MMV1581559], for which the “% of growth inhibition, Mean” value is -18.9%.

As for `CC(=N)N1CC[C@H](SC2=C(C(=O)O)N3C(=O)[C@@H]([C@@H](C)O)[C@H]3C2)C1` [MMV1582382], the “% of growth inhibition, Mean” value is -12.0%.

In the case of `CCCCCCCCC(CP(=O)(O)C(C)N)C(=O)O` (stereo not drawn) [MMV1582487], the “% of growth inhibition, Mean” value is recorded as -11.5%.

Take `Cl.Nc1nc(-c2ccccc2)nc2c1ncn2[C@@H]1O[C@H](COS(=O)(=O)NC(=O)c2ccccc2O)[C@@H](O)[C@H]1O` [MMV1582488]: the “% of growth inhibition, Mean” value is on record as -7.5%.

For the compound `Cc1c[nH]c(=O)nc1NCc1ccccc1` [MMV1582489], the “% of growth inhibition, Mean” value was -18.8%.

Turning to `CCc1cc(Cc2cnc(N)nc2N)cc2c1N(C)CCC2C` (stereo not drawn) [MMV1582490], the “% of growth inhibition, Mean” value was -3.0%.
